Assay results taken from patent US12404262B2 (priority 2021, dated 2025).

Conditions: 1.0% DMSO, 24-hour incubation at ambient temperature, maximum theoretical 100 μM; for pH 2 solubility: 0.1N HCl, first value of the cell; for pH 7 solubility: 1×PBS buffer (pH 7.4), second value of the cell

For CC(C)(C)C(=O)OCN(c1nn(CC(F)(F)F)c2c(-c3ccc(C#CC(C)(C)S(C)(=O)=O)nc3[C@H](Cc3cc(F)cc(F)c3)NC(=O)Cn3nc(C(F)(F)F)c4c3C(F)(F)[C@@H]3C[C@H]43)ccc(Cl)c12)S(C)(=O)=O [Compound 30, (N-(4-chloro-7-(2-((S)-1-(2-((3bS,4aR)-5,5-difluoro-3-(trifluoromethyl)-3b,4,4a,5-tetrahydro-1H-cyclopropa[3,4]cyclopenta[1,2-c]pyrazol-1-yl)acetamido)-2-(3,5-difluorophenyl)ethyl)-6-(3-methyl-3-(methylsulfonyl)but-1-yn-1-yl)pyridin-3-yl)-1-(2,2,2-trifluoroethyl)-1H-indazol-3-yl)methylsulfonamido)methyl pivalate], the “pH 2 solubility” value was 1/1 μM and the “pH 7 solubility” value was 1/1 μM.
For CC(C)(O)CNC(=O)N(c1nn(CC(F)(F)F)c2c(-c3ccc(C#CC(C)(C)S(C)(=O)=O)nc3[C@H](Cc3cc(F)cc(F)c3)NC(=O)Cn3nc(C(F)(F)F)c4c3C(F)(F)[C@@H]3C[C@H]43)ccc(Cl)c12)S(C)(=O)=O [Compound 32, N—((S)-1-(3-(4-chloro-3-(N-((2-hydroxy-2-methylpropyl)carbamoyl)methylsulfonamido)-1-(2,2,2-trifluoroethyl)-1H-indazol-7-yl)-6-(3-methyl-3-(methylsulfonyl)but-1-yn-1-yl)pyridin-2-yl)-2-(3,5-difluorophenyl)ethyl)-2-((3bS,4aR)-5,5-difluoro-3-(trifluoromethyl)-3b,4,4a,5-tetrahydro-1H-cyclopropa[3,4]cyclopenta[1,2-c]pyrazol-1-yl)acetamide], the “pH 2 solubility” value was 1/1 μM and the “pH 7 solubility” value was 1/1 μM.
For CC(C)(CNC(=O)N(c1nn(CC(F)(F)F)c2c(-c3ccc(C#CC(C)(C)S(C)(=O)=O)nc3[C@H](Cc3cc(F)cc(F)c3)NC(=O)Cn3nc(C(F)(F)F)c4c3C(F)(F)[C@@H]3C[C@H]43)ccc(Cl)c12)S(C)(=O)=O)OP(=O)(O)O [Compound 33, 1-(3-(4-chloro-7-(2-((S)-1-(2-((3bS,4aR)-5,5-difluoro-3-(trifluoromethyl)-3b,4,4a,5-tetrahydro-1H-cyclopropa[3,4]cyclopenta[1,2-c]pyrazol-1-yl)acetamido)-2-(3,5-difluorophenyl)ethyl)-6-(3-methyl-3-(methylsulfonyl)but-1-yn-1-yl)pyridin-3-yl)-1-(2,2,2-trifluoroethyl)-1H-indazol-3-yl)-3-(methylsulfonyl)ureido)-2-methylpropan-2-yl dihydrogen phosphate], the “pH 2 solubility” value was 6 μM and the “pH 7 solubility” value was 16 μM.
For C[C@H](O)CNC(=O)N(c1nn(CC(F)(F)F)c2c(-c3ccc(C#CC(C)(C)S(C)(=O)=O)nc3[C@H](Cc3cc(F)cc(F)c3)NC(=O)Cn3nc(C(F)(F)F)c4c3C(F)(F)[C@@H]3C[C@H]43)ccc(Cl)c12)S(C)(=O)=O [Compound 34, N—((S)-1-(3-(4-chloro-3-(N—(((S)-2-hydroxypropyl)carbamoyl)methylsulfonamido)-1-(2,2,2-trifluoroethyl)-1H-indazol-7-yl)-6-(3-methyl-3-(methylsulfonyl)but-1-yn-1-yl)pyridin-2-yl)-2-(3,5-difluorophenyl)ethyl)-2-((3bS,4aR)-5,5-difluoro-3-(trifluoromethyl)-3b,4,4a,5-tetrahydro-1H-cyclopropa[3,4]cyclopenta[1,2-c]pyrazol-1-yl)acetamide], the “pH 2 solubility” value was 1 μM and the “pH 7 solubility” value was 4 μM.
With C[C@@H](CNC(=O)N(c1nn(CC(F)(F)F)c2c(-c3ccc(C#CC(C)(C)S(C)(=O)=O)nc3[C@H](Cc3cc(F)cc(F)c3)NC(=O)Cn3nc(C(F)(F)F)c4c3C(F)(F)[C@@H]3C[C@H]43)ccc(Cl)c12)S(C)(=O)=O)OP(=O)(O)O [Compound 35, (S)-1-(3-(4-chloro-7-(2-((S)-1-(2-((3bS,4aR)-5,5-difluoro-3-(trifluoromethyl)-3b,4,4a,5-tetrahydro-1H-cyclopropa[3,4]cyclopenta[1,2-c]pyrazol-1-yl)acetamido)-2-(3,5-difluorophenyl)ethyl)-6-(3-methyl-3-(methylsulfonyl)but-1-yn-1-yl)pyridin-3-yl)-1-(2,2,2-trifluoroethyl)-1H-indazol-3-yl)-3-(methylsulfonyl)ureido)propan-2-yl dihydrogen phosphate] the “pH 2 solubility” value was 1 μM and the “pH 7 solubility” value was 14 μM.
In the case of CC(C)(C#Cc1ccc(-c2ccc(Cl)c3c(N(C(=O)NC(CO)CO)S(C)(=O)=O)nn(CC(F)(F)F)c23)c([C@H](Cc2cc(F)cc(F)c2)NC(=O)Cn2nc(C(F)(F)F)c3c2C(F)(F)[C@@H]2C[C@H]32)n1)S(C)(=O)=O [Compound 36, N—((S)-1-(3-(4-chloro-3-(N-((1,3-dihydroxypropan-2-yl)carbamoyl)methylsulfonamido)-1-(2,2,2-trifluoroethyl)-1H-indazol-7-yl)-6-(3-methyl-3-(methylsulfonyl)but-1-yn-1-yl)pyridin-2-yl)-2-(3,5-difluorophenyl)ethyl)-2-((3bS,4aR)-5,5-difluoro-3-(trifluoromethyl)-3b,4,4a,5-tetrahydro-1H-cyclopropa[3,4]cyclopenta[1,2-c]pyrazol-1-yl)acetamide], the “pH 2 solubility” value is reported as 1 μM and the “pH 7 solubility” value is reported as 5 μM.
In the case of CC(C)(C#Cc1ccc(-c2ccc(Cl)c3c(N(C(=O)NC(COC(=O)C(=O)O)COC(=O)C(=O)O)S(C)(=O)=O)nn(CC(F)(F)F)c23)c([C@H](Cc2cc(F)cc(F)c2)NC(=O)Cn2nc(C(F)(F)F)c3c2C(F)(F)[C@@H]2C[C@H]32)n1)S(C)(=O)=O [Compound 37, 2,2′-((2-(3-(4-chloro-7-(2-((S)-1-(2-((3bS,4aR)-5,5-difluoro-3-(trifluoromethyl)-3b,4,4a,5-tetrahydro-1H-cyclopropa[3,4]cyclopenta[1,2-c]pyrazol-1-yl)acetamido)-2-(3,5-difluorophenyl)ethyl)-6-(3-methyl-3-(methylsulfonyl)but-1-yn-1-yl)pyridin-3-yl)-1-(2,2,2-trifluoroethyl)-1H-indazol-3-yl)-3-(methylsulfonyl)ureido)propane-1,3-diyl)bis(oxy))bis(2-oxoacetic acid)], the “pH 2 solubility” value is reported as 3 μM and the “pH 7 solubility” value is reported as 18 μM.
In the case of CC(C)(C#Cc1ccc(-c2ccc(Cl)c3c(N(C(=O)NC(COP(=O)(O)O)COP(=O)(O)O)S(C)(=O)=O)nn(CC(F)(F)F)c23)c([C@H](Cc2cc(F)cc(F)c2)NC(=O)Cn2nc(C(F)(F)F)c3c2C(F)(F)[C@@H]2C[C@H]32)n1)S(C)(=O)=O [Compound 38, 2-(3-(4-chloro-7-(2-((S)-1-(2-((3bS,4aR)-5,5-difluoro-3-(trifluoromethyl)-3b,4,4a,5-tetrahydro-1H-cyclopropa[3,4]cyclopenta[1,2-c]pyrazol-1-yl)acetamido)-2-(3,5-difluorophenyl)ethyl)-6-(3-methyl-3-(methylsulfonyl)but-1-yn-1-yl)pyridin-3-yl)-1-(2,2,2-trifluoroethyl)-1H-indazol-3-yl)-3-(methylsulfonyl)ureido)propane-1,3-diyl bis(dihydrogen phosphate)], the “pH 2 solubility” value is reported as 10 μM and the “pH 7 solubility” value is reported as 16 μM.
With CC(C)(CO)NC(=O)N(c1nn(CC(F)(F)F)c2c(-c3ccc(C#CC(C)(C)S(C)(=O)=O)nc3[C@H](Cc3cc(F)cc(F)c3)NC(=O)Cn3nc(C(F)(F)F)c4c3C(F)(F)[C@@H]3C[C@H]43)ccc(Cl)c12)S(C)(=O)=O [Compound 39, N—((S)-1-(3-(4-chloro-3-(N-((1-hydroxy-2-methylpropan-2-yl)carbamoyl)methylsulfonamido)-1-(2,2,2-trifluoroethyl)-1H-indazol-7-yl)-6-(3-methyl-3-(methylsulfonyl)but-1-yn-1-yl)pyridin-2-yl)-2-(3,5-difluorophenyl)ethyl)-2-((3bS,4aR)-5,5-difluoro-3-(trifluoromethyl)-3b,4,4a,5-tetrahydro-1H-cyclopropa[3,4]cyclopenta[1,2-c]pyrazol-1-yl)acetamide] the “pH 2 solubility” value was 1 μM and the “pH 7 solubility” value was 2 μM.
For CC(C)(C#Cc1ccc(-c2ccc(Cl)c3c(N(C(=O)NCCO)S(C)(=O)=O)nn(CC(F)(F)F)c23)c([C@H](Cc2cc(F)cc(F)c2)NC(=O)Cn2nc(C(F)(F)F)c3c2C(F)(F)[C@@H]2C[C@H]32)n1)S(C)(=O)=O [Compound 40, N—((S)-1-(3-(4-chloro-3-(N-((2-hydroxyethyl)carbamoyl)methylsulfonamido)-1-(2,2,2-trifluoroethyl)-1H-indazol-7-yl)-6-(3-methyl-3-(methylsulfonyl)but-1-yn-1-yl)pyridin-2-yl)-2-(3,5-difluorophenyl)ethyl)-2-((3bS,4aR)-5,5-difluoro-3-(trifluoromethyl)-3b,4,4a,5-tetrahydro-1H-cyclopropa[3,4]cyclopenta[1,2-c]pyrazol-1-yl)acetamide], the “pH 2 solubility” value was 1 μM and the “pH 7 solubility” value was 2 μM.
In the case of CC(C)(C#Cc1ccc(-c2ccc(Cl)c3c(N(C(=O)NCCOP(=O)(O)O)S(C)(=O)=O)nn(CC(F)(F)F)c23)c([C@H](Cc2cc(F)cc(F)c2)NC(=O)Cn2nc(C(F)(F)F)c3c2C(F)(F)[C@@H]2C[C@H]32)n1)S(C)(=O)=O [Compound 41, 2-(3-(4-chloro-7-(2-((S)-1-(2-((3bS,4aR)-5,5-difluoro-3-(trifluoromethyl)-3b,4,4a,5-tetrahydro-1H-cyclopropa[3,4]cyclopenta[1,2-c]pyrazol-1-yl)acetamido)-2-(3,5-difluorophenyl)ethyl)-6-(3-methyl-3-(methylsulfonyl)but-1-yn-1-yl)pyridin-3-yl)-1-(2,2,2-trifluoroethyl)-1H-indazol-3-yl)-3-(methylsulfonyl)ureido)ethyl dihydrogen phosphate], the “pH 2 solubility” value is reported as 3 μM and the “pH 7 solubility” value is reported as 17 μM.
For CC(C)(C#Cc1ccc(-c2ccc(Cl)c3c(N(C(=O)NCCN4CCOCC4)S(C)(=O)=O)nn(CC(F)(F)F)c23)c([C@H](Cc2cc(F)cc(F)c2)NC(=O)Cn2nc(C(F)(F)F)c3c2C(F)(F)[C@@H]2C[C@H]32)n1)S(C)(=O)=O [Compound 42, N—((S)-1-(3-(4-chloro-3-(N-((2-morpholinoethyl)carbamoyl)methylsulfonamido)-1-(2,2,2-trifluoroethyl)-1H-indazol-7-yl)-6-(3-methyl-3-(methylsulfonyl)but-1-yn-1-yl)pyridin-2-yl)-2-(3,5-difluorophenyl)ethyl)-2-((3bS,4aR)-5,5-difluoro-3-(trifluoromethyl)-3b,4,4a,5-tetrahydro-1H-cyclopropa[3,4]cyclopenta[1,2-c]pyrazol-1-yl)acetamide], the “pH 2 solubility” value was 62 μM and the “pH 7 solubility” value was 5 μM.
